Test results as given in patent US6737383B1, “Herbicidal oxadiazolidines” (priority 1999, dated 2004).

Legend:
bedstraw = test: Test B pre/postemergence bedstraw; assay type: in vivo, Galium aparine; details: Postemergence
Procedure, shortened: (§1)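 Herbicidal effect was estimated by eye on a ten-point control scale after plants spent twelve to sixteen days in a greenhouse following soil or foliar treatment. Foliar sprays targeted plants at one to four leaves; all doses were formulated in a non-phytotoxic solvent with surfactant.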

rice = test: Test B flood test rice; assay type: in vivo, Oryza sativa; details: flood test species
Procedure, shortened: (§2)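 Plants were grown to the 2-leaf stage before treatment with test chemical, then held in a greenhouse for twelve to sixteen days. Injury was visually rated against untreated controls on a 0–10 scale, where 0 is no effect and 10 is complete control.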

cocklebur = test: Test B pre/postemergence cocklebur; assay type: in vivo, Xanthium strumarium
Procedure, shortened: as §1

wild oat = test: Test B pre/postemergence wild oat; assay type: in vivo, Avena fatua
Procedure, shortened: as §1

soybean = test: Test B pre/postemergence soybean; assay type: in vivo, Glycine max
Procedure, shortened: as §1

purple nutsedge = test: Test B pre/postemergence purple nutsedge; assay type: in vivo, Cyperus rotundus
Procedure, shortened: as §1

corn = test: Test B pre/postemergence corn; assay type: in vivo, Zea mays
Procedure, shortened: as §1

velvetleaf = test: Test B pre/postemergence velvetleaf; assay type: in vivo, Abutilon theophrasti
Procedure, shortened: as §1

crabgrass = test: Test B pre/postemergence crabgrass; assay type: in vivo, Digitaria sanguinalis
Procedure, shortened: as §1

surinam grass = test: Test B pre/postemergence surinam grass; assay type: in vivo, Brachiaria decumbens
Procedure, shortened: as §1

giant foxtail = test: Test B pre/postemergence giant foxtail; assay type: in vivo, Setaria faberii
Procedure, shortened: as §1

morningglory = test: Test B pre/postemergence morningglory; assay type: in vivo, Ipomoea hederacea
Procedure, shortened: as §1

bamyardgrass = test: Test B flood test barnyardgrass; assay type: in vivo, Echinochloa crus-galli; details: flood test species
Procedure, shortened: as §2

blackgrass = test: Test B pre/postemergence blackgrass; assay type: in vivo, Alopecurus myosuroides
Procedure, shortened: as §1

wheat = test: Test B pre/postemergence wheat; assay type: in vivo, Triticum aestivum
Procedure, shortened: as §1

smallflower flatsedge = test: Test B flood test smallflower flatsedge; assay type: in vivo, Cyperus difformis; details: flood test species
Procedure, shortened: as §2

rape = test: Test B pre/postemergence rape; assay type: in vivo, Brassica napus
Procedure, shortened: as §1

sugar beet = test: Test B pre/postemergence sugar beet; assay type: in vivo, Beta vulgaris
Procedure, shortened: as §1

duck salad = test: Test B flood test duck salad; assay type: in vivo, Heteranthera limosa; details: flood test species
Procedure, shortened: as §2

pigweed = test: Test B pre/postemergence pigweed; assay type: in vivo, Amaranthus retroflexus
Procedure, shortened: as §1

[1] = Rate 62 g/ha, Pre-emergence, visual evaluation after twelve to sixteen days
[2] = Rate 125 g/ha, under heading Pre-emergence, visual evaluation after twelve to sixteen days
[3] = Rate 500 g/ha, Pre-emergence, scale 0 to 10 (0 no effect, 10 complete control)
[4] = Postemergence, Rate 125 g/ha, scale 0 to 10, 0 is no effect, 10 is complete control
[5] = Postemergence, Rate 250 g/ha, scale 0 to 10
[6] = Postemergence, Rate 500 g/ha, scale 0 to 10, 0 is no effect, 10 is complete control
[7] = Preemergence, Rate 62 g/ha, scale of 0 to 10 where 0 is no effect and 10 is complete control
[8] = Preemergence, Rate 125 g/ha, scale 0 to 10, 0 is no effect, 10 is complete control
[9] = Preemergence, Rate 250 g/ha, scale 0 to 10, 0 is no effect, 10 is complete control
[10] = Preemergence, Rate 500 g/ha, scale 0 to 10, 0 is no effect, 10 is complete control
[11] = Rate 62 g/ha, Postemergence, scale 0 to 10 (0 no effect, 10 complete control)

Structure (SMILES): CC(C)C(=O)Cn1c(=O)on(C(=O)N(c2ccccc2)C(C)C)c1=O [Compound 485]
- Bedstraw plant response rating (bedstraw; Rate 125 g/ha, scale 0 to 10, 0 is no effect, 10 is complete control): 0
- Bedstraw plant response rating (bedstraw; Rate 250 g/ha, scale 0 to 10): 2
- Plant response rating, Bedstraw (bedstraw; Rate 500 g/ha, scale 0 to 10, 0 is no effect, 10 is complete control): 6
- Bedstraw plant response rating (bedstraw; Rate 62 g/ha, scale 0 to 10 (0 no effect, 10 complete control)): 0
- Plant response rating, Rice (0 to 10 scale, 0 is no effect, 10 is complete control) (rice; [1]): 0
- Rice plant response rating (0 to 10 scale, 0 is no effect, 10 is complete control) (rice; [2]): 0
- Rice plant response rating (rice; [3]): 0
- Cocklebur plant response rating (cocklebur; [4]): 0
- Cocklebur plant response rating (cocklebur; [5]): 0
- Plant response rating, Cocklebur (cocklebur; [6]): 0
- Plant response rating, Cocklebur (cocklebur; [7]): 0
- Cocklebur plant response rating (cocklebur; [8]): 0
- Cocklebur plant response rating (cocklebur; [9]): 0
- Cocklebur plant response rating (cocklebur; [10]): 0
- Cocklebur plant response rating (cocklebur; [11]): 0
- Wild oats plant response rating (wild oat; [4]): 0
- Plant response rating, Wild oats (wild oat; [6]): 4
- Plant response rating, Wild oats (wild oat; [7]): 2
- Wild oats plant response rating (wild oat; [8]): 5
- Wild oats plant response rating (wild oat; [9]): 6
- Wild oats plant response rating (wild oat; [10]): 8
- Wild oats plant response rating (wild oat; [11]): 0
- Soybean plant response rating (soybean; [4]): 4
- Plant response rating, Soybean (soybean; [6]): 5
- Plant response rating, Soybean (soybean; [7]): 0
- Soybean plant response rating (soybean; [8]): 0
- Soybean plant response rating (soybean; [9]): 0
- Soybean plant response rating (soybean; [10]): 0
- Soybean plant response rating (soybean; [11]): 2
- Nutsedge plant response rating (purple nutsedge; [4]): 0
- Plant response rating, Nutsedge (purple nutsedge; [6]): 0
- Plant response rating, Nutsedge (purple nutsedge; [7]): 0
- Nutsedge plant response rating (purple nutsedge; [8]): 0
- Nutsedge plant response rating (purple nutsedge; [9]): 0
- Nutsedge plant response rating (purple nutsedge; [10]): 0
- Nutsedge plant response rating (purple nutsedge; [11]): 0
- Corn plant response rating (corn; [4]): 0
- Corn plant response rating (corn; [5]): 0
- Plant response rating, Corn (corn; [6]): 0
- Plant response rating, Corn (corn; [7]): 0
- Corn plant response rating (corn; [8]): 0
- Corn plant response rating (corn; [9]): 0
- Corn plant response rating (corn; [10]): 7
- Corn plant response rating (corn; [11]): 0
- Velvetleaf plant response rating (velvetleaf; [4]): 0
- Plant response rating, Velvetleaf (velvetleaf; [6]): 4
- Plant response rating, Velvetleaf (velvetleaf; [7]): 0
- Velvetleaf plant response rating (velvetleaf; [8]): 0
- Velvetleaf plant response rating (velvetleaf; [9]): 0
- Velvetleaf plant response rating (velvetleaf; [10]): 3
- Velvetleaf plant response rating (velvetleaf; [11]): 0
- Crabgrass plant response rating (crabgrass; [4]): 6
- Crabgrass plant response rating (crabgrass; [5]): 7
- Plant response rating, Crabgrass (crabgrass; [6]): 8
- Plant response rating, Crabgrass (crabgrass; [7]): 6
- Crabgrass plant response rating (crabgrass; [8]): 7
- Crabgrass plant response rating (crabgrass; [9]): 10
- Crabgrass plant response rating (crabgrass; [10]): 10
- Crabgrass plant response rating (crabgrass; [11]): 3
- B. signalgrass plant response rating (surinam grass; [4]): 0
- B. signalgrass plant response rating (surinam grass; Postemergence, Rate 250 g/ha, scale 0 to 10, 0 no effect, 10 complete control): 4
- Plant response rating, B. signalgrass (surinam grass; [6]): 5
- Plant response rating, B. signalgrass (surinam grass; [7]): 3
- B. signalgrass plant response rating (surinam grass; [8]): 5
- B. signalgrass plant response rating (surinam grass; [9]): 8
- B. signalgrass plant response rating (surinam grass; [10]): 8
- B. signalgrass plant response rating (surinam grass; [11]): 0
- Giant foxtail plant response rating (giant foxtail; [4]): 7
- Plant response rating, Giant foxtail (giant foxtail; [6]): 8
- Plant response rating, Giant foxtail (giant foxtail; [7]): 7
- Giant foxtail plant response rating (giant foxtail; [8]): 8
- Giant foxtail plant response rating (giant foxtail; [9]): 10
- Giant foxtail plant response rating (giant foxtail; [10]): 10
- Giant foxtail plant response rating (giant foxtail; [11]): 5
- Morningglory plant response rating (morningglory; [4]): 10
- Plant response rating, Morningglory (morningglory; [6]): 10
- Plant response rating, Morningglory (morningglory; [7]): 0
- Morningglory plant response rating (morningglory; [8]): 0
- Morningglory plant response rating (morningglory; [9]): 0
- Morningglory plant response rating (morningglory; [10]): 4
- Morningglory plant response rating (morningglory; [11]): 8
- Plant response rating, Barnyardgrass (0 to 10 scale, 0 is no effect, 10 is complete control) (bamyardgrass; [1]): 0
- Barnyardgrass plant response rating (0 to 10 scale, 0 is no effect, 10 is complete control) (bamyardgrass; [2]): 0
- Barnyardgrass plant response rating (bamyardgrass; [3]): 0
- Blackgrass plant response rating (blackgrass; [4]): 7
- Blackgrass plant response rating (blackgrass; [5]): 7
- Plant response rating, Blackgrass (blackgrass; [6]): 8
- Plant response rating, Blackgrass (blackgrass; [7]): 4
- Blackgrass plant response rating (blackgrass; [8]): 8
- Blackgrass plant response rating (blackgrass; [9]): 8
- Blackgrass plant response rating (blackgrass; [10]): 9
- Blackgrass plant response rating (blackgrass; [11]): 3
- Wheat plant response rating (wheat; [4]): 0
- Plant response rating, Wheat (wheat; [6]): 5
- Plant response rating, Wheat (wheat; [7]): 0
- Wheat plant response rating (wheat; [8]): 2
- Wheat plant response rating (wheat; [9]): 3
- Wheat plant response rating (wheat; [10]): 5
- Wheat plant response rating (wheat; [11]): 0
- Plant response rating, S. Flatsedge (0 to 10 scale, 0 is no effect, 10 is complete control) (smallflower flatsedge; [1]): 0
- S. Flatsedge plant response rating (0 to 10 scale, 0 is no effect, 10 is complete control) (smallflower flatsedge; [2]): 0
- S. Flatsedge plant response rating (smallflower flatsedge; [3]): 0
- Rape plant response rating (rape; [4]): 0
- Plant response rating, Rape (rape; [6]): 0
- Plant response rating, Rape (rape; [7]): 0
- Rape plant response rating (rape; [8]): 0
- Rape plant response rating (rape; [9]): 0
- Rape plant response rating (rape; [10]): 2
- Rape plant response rating (rape; [11]): 0
- Sugarbeets plant response rating (sugar beet; [4]): 0
- Plant response rating, Sugarbeets (sugar beet; [6]): 0
- Plant response rating, Sugarbeets (sugar beet; [7]): 0
- Sugarbeets plant response rating (sugar beet; [8]): 0
- Sugarbeets plant response rating (sugar beet; [9]): 0
- Sugarbeets plant response rating (sugar beet; [10]): 2
- Sugarbeets plant response rating (sugar beet; [11]): 0
- Plant response rating, Ducksalad (0 to 10 scale, 0 is no effect, 10 is complete control) (duck salad; [1]): 0
- Ducksalad plant response rating (0 to 10 scale, 0 is no effect, 10 is complete control) (duck salad; [2]): 0
- Ducksalad plant response rating (duck salad; [3]): 0
- Redroot pigweed plant response rating (pigweed; [4]): 0
- Plant response rating, Redroot pigweed (pigweed; [6]): 2
- Plant response rating, Redroot pigweed (pigweed; [7]): 1
- Redroot pigweed plant response rating (pigweed; [8]): 6
- Redroot pigweed plant response rating (pigweed; [10]): 9
- Redroot pigweed plant response rating (pigweed; [11]): 0
